From US8623649B2, “Method of selecting a cardiomyoctye using intracellular mitochondria as an indicator” (Daiichi Sankyo Company, Limited, priority 2004, dated 2014)
“Also recorded” adds a separate entry of the source.

Tests used:
Type in all cases: cell-based
[1] = tested on: cell mixture derived from a whole heart extracted from neonatal rat heart; assay: Labeling of neonatal rat whole-heart cell mixture with mitochondrial indicator, FACS sorting, anti-Sarcomeric α-Actinin immunostaining; conditions: for percentage of cardiomyocyte in cells with relatively higher fluorescent intensity (P5 area): cultured 24 hours
Procedure: (§1) Neonatal rats 1-3 days after birth were sacrificed by cervical dislocation after ether anesthesia, after which the heart of each rats was isolated. Cardiac ventricle isolated from the heart was treated with 0.025% (w/v) of collagenase (available from Warthington Biomedical Corporation) in serum free D-MEM (High-glucose) medium (available from Invitrogen). By digesting the cardiac ventricle using collagenase, cells were dispersed in the medium to prepare a cell mixture derived from a whole heart.
(§2) Subsequently, the culture medium was replaced by D-MEM (High-glucose) medium (available from Invitrogen) supplemented with 10% (final concentration) of fetal bovine serum (available from JRH Bioscience). Thus prepared cultured cells were incubated in the culture medium containing 100 nM (final concentration) of a mitochondrial indicator, M7512 (available from Molecular Probe) for 10 minutes at 37° C. After incubation, the cells were washed 4 times using the culture medium and further cultured for 24 hours at 37° C.
The cell mixture derived from a whole heart was prepared in accordance with the method described in Example 1 and labeled with M7512. The labeled cell mixture derived from a whole heart was subjected to analysis of distribution of the cells of the cell mixture derived from a whole heart using FACS (registered trademark) (BD, Franklin Lakes, N.J. USA).
In this example, cells of P5 area were sorted as a cardiomyocyte and cells of P6 area were sorted as a non-cardiomyocyte, each then being separately subjected to the cell culture.
(§3) Next, the fixed cells were labeled with a cardiomyocyte marker, mouse anti-Sarcomeric α-Actinin Antibody (available from SIGMA), which were visualized using green fluorescent material-conjugated goat anti-mouse antibody (available from Molecular Probes).
In this example, the cell mixture derived from a whole heart extracted from a neonatal rat heart, which was labeled with a mitochondrial indicator, was prepared by the same method as that described in Example 1, except that T3168 (available from Molecular Probe) was used as a mitochondrial indicator.
Thus selected cells were cultured followed by paraformaldehyde fixation by the same method as that described in Example 5, which were labeled with mouse anti-Sarcomeric α-Actinin Antibody (available from SIGMA).
Neonatal rat heart was treated with 0.025% (w/v) of collagenase (available from SIGMA) and trypsin (available from GIBCO) to collect a cell population. Cells dispersed in the culture medium were exposed to 1 μM (final concentration) of a mitochondrial indicator, T668 (available form Molecular Probe) for 15 minutes at 37° C., washed 3 times, and immediately analyzed by FACS.
Neonatal rat heart was treated with collagenase and trypsin to collect a cell population. Cells dispersed in the culture medium were exposed to 1 μM (final concentration) of a mitochondrial indicator S7563 for 15 minutes at 37° C., washed 3 times, and immediately analyzed by FACS.

[2] = tested on: cell mixture derived from a mouse embryonic stem cell; assay: Labeling of mouse embryonic stem cell derived cell mixture with mitochondrial indicator, FACS sorting, Actinin immunostaining
Description: as §3

[3] = tested on: cell mixture derived from a whole heart extracted from neonatal rat heart; assay: Fluorescent microscope observation of labeled neonatal rat whole-heart cell mixture; conditions: 100 nM, 10 minutes at 37° C., cultured 24 hours
Procedure: as §1, §2

[4] = tested on: cell mixture derived from a mouse embryonic stem cell; assay: Fluorescent microscope observation of labeled mouse embryonic stem cell derived cell mass; conditions: labeled as Example 1, adhesion culture 5 days after removal of M7512
Procedure: Fourteen days after differentiation and induction, a cell mass containing an autonomously pulsating cardiomyocyte was confirmed to be formed in the culture vessel, to which 10^−8 M of all trans-retinoic acid was added for further enhancing the degree of differentiation/induction of the cardiomyocyte.
At 21st day from differentiation/induction, a cell mass containing an autonomously pulsating cardiomyocyte was dispersed into separate cells to form a cell mixture. Thus prepared cell mixture was labeled with M7512 under the same condition as that of Example 1 and cultured under the condition of the adhesion culture for further 5 days after removal of M7512. After further culture for 5 days, a cell mass containing an autonomously pulsating cardiomyocyte prepared under the culture condition was observed using a fluorescent microscope.

[5] = tested on: fetal rat cells derived from a whole heart; assay: Staining of fetal rat whole-heart cells (13th day post conception), FACS sorting, anti-Actinin immunostaining; conditions: fetal rat heart of 13th day post conception; 1 μM, 15 minutes at 37° C.
Procedure: Fetal rat heart of 13th day post conception was treated with collagenase and trypsin to collect a cell population. Cells dispersed in the culture medium were exposed to 1 μM (final concentration) of a mitochondrial indicator T668 for 15 minutes at 37° C., washed 3 times, and immediately subjected to FACS analysis. The cells were separated into 3 groups of cell population based on T668 fluorescent intensity (FIG. 9-1).
Then, the cardiomyocyte was identified by immunostaining of the cultured cell using anti-Actinin antibody.

whole fetal cells = assay: Staining of whole fetal cells (fetal rat of 9th day post conception), FACS sorting, Actinin immunostaining; conditions: 1 μM, 15 minutes at 37° C.
Procedure: Fetal rat of 9th day post conception was treated with collagenase and trypsin to collect cell population. Cells dispersed in the culture medium were exposed to 1 μM (final concentration) of a mitochondrial indicator T668 for 15 minutes at 37° C., washed 3 times, and immediately subjected to FACS analysis. One single cell population was mainly observed as a cell population based on the fluorescent intensity. On the other hand, in the high fluorescent intensity area in which the cardiomyocyte was predicted to be detected based on the analysis of a whole heart sample from the later development stage, a definite cell population could not be found (FIG. 10-1).
The cells were cultured and immunostained with an antibody against a cardiomyocyte marker, Actinin. […] Since the cardiomyocyte is extremely immature in the fetus of 9th day post conception (early embryo), it is considered in the art that quantitative alteration of the mitochondria has not completely occurred.

[6] = tested on: neonatal rat cells derived from a whole heart; assay: Double staining with T668 and M7514, comparative FACS analysis of transmembrane potential per mitochondria
Procedure: Cell population was collected using the same materials and the same method as those described in Example 8. Thus collected cardiomyocytes were stained with a mitochondrial indicator, M7514 (available from Molecular Probe), independent of the transmembrane potential which can specifically stain mitochondria and with a mitochondrial indicator T668 dependent on the transmembrane potential which can also specifically stain mitochondria. The cells were analyzed using FACS immediately after the staining. It is possible to separately detect the fluorescence of T668 and that of M7514 since the wavelength of the fluorescence from T668 is different from that from M7514. In this example, three groups of cell population were detected based on T668 fluorescence as an indicator.
Next, each cell population is separated based on the ratio of fluorescent intensity derived from T668 divided by fluorescent intensity derived from M7514. […]

[7] = tested on: rat cells derived from a whole heart; assay: Staining of rat whole-heart cells from 11th day post conception to 8 days after birth and FACS analysis; conditions: 11th day post conception to 8 days after birth; 1 μM, 15 minutes at 37° C.
Procedure: Rat heart obtained at 11th day post conception to 8 days after birth was treated with collagenase and trypsin to collect a cell population. Cells dispersed in the culture medium were exposed to 1 μM (final concentration) of a mitochondrial indicator T668 for 15 minutes at 37° C., washed 3 times, and immediately analyzed by FACS. In consequence, the cell population was isolated by T668 fluorescent intensity. […] Therefore, it is shown that it is possible to presume the maturity of the cardiomyocyte by the method provided by the present specification.

[8] = 100 nM indicator, 10 minutes at 37° C., FACS sorted, anti-Sarcomeric α-Actinin, 30% before selection
[9] = 1 μM indicator, 15 minutes at 37° C., immediate FACS, anti-Actinin immunostaining
[10] = 1 μM, 15 minutes at 37° C., immediate FACS, Actinin immunostaining

How did the “percentage of cardiomyocyte in cells with relatively higher fluorescent intensity (P5 area)” value [1, 8] turn out when ClCc1ccc(C2=c3cc4c5c(c3Oc3c2cc2c6c3CCCN6CCC2)CCC[N+]=5CCC4)cc1.[Cl-] [M7512, 1H,5H,11H,15H-Xantheno[2,3,4-ij:5,6,7-i′j′]diquinolizin-18-ium, 9-[4-(chloromethyl)phenyl]-2,3,6,7,12,13,16,17-octahydro-, chloride] was run?
The value was “more than 99%”.

What about the “percentage of cardiomyocyte in cells with relatively lower fluorescent intensity (P6 area)” value [1, 8] of the same molecule?
The value was “approximately equal to the percentage of the cardiomyocyte before the selection”.

And the “percentage of cardiomyocyte in cells collected from P2 area (relatively higher fluorescent intensity)” value ([2]; M7512 labeling as Example 1, 5 days culture after removal, 10% before selection)?
The value was “more than 80%”.

What about the “indicator-based fluorescence under fluorescent microscope” value [3] of the same molecule?
Its value is “clearly observed in a cardiomyocyte”.

And the “labeling of autonomously pulsating cardiomyocytes compared with other types of cells” value [4]?
Its value is “strongly labeled”.

Which “composition of cell population with the highest fluorescent intensity” value [1, 9] does the source give for COC(=O)c1ccccc1-c1c2ccc(=N)cc-2oc2cc(N)ccc12.Cl [R302] here?
The value was “cells of interest can also be obtained”.

Which “composition of cell population with the highest fluorescent intensity” value [1, 9] does the source give for COC(=O)c1ccccc1-c1c2ccc(N(C)C)cc2[o+]c2cc(N(C)C)ccc12 [T668, Xanthylium, 3,6-bis(dimethylamino)-9-(2-(methoxycarbonyl)phenyl)-, perchlorate] here?
Its value is “almost all cells of the cell population with the highest intensity of T668 fluorescent signal consist of a cardiomyocyte”.

And the “composition of cell population with the middle fluorescent intensity” value [1, 9]?
Its value is “almost all cells of the cell population with the middle fluorescent intensity consist of a non-cardiomyocyte”.

And the “composition of main cell population” value [2, 10]?
Its value is “Almost all of the cells collected consist of a non-cardiomyocyte”.

And the “percentage of cardiomyocyte in high fluorescent cell population” value [2, 10]?
The value was “More than 98%”.

And the “composition of cell population with the highest fluorescent intensity” value [5]?
Its value is “almost all cells of the cell population with the highest intensity of T668 consist of a cardiomyocyte; also recorded: almost all cells of the cell population with the highest intensity of T668 fluorescent signal consist of the cardiomyocyte”.

What about the “composition of cell population with the middle fluorescent intensity” value [5] of the same molecule?
Its value is “almost all cells of the cell population with the middle fluorescent population consist of a non-cardiomyocyte; also recorded: almost all cells of the cell population with the middle fluorescent intensity consist of the non-cardiomyocyte”.

What about the “percentage of cardiomyocyte in high fluorescent cell population” value (whole fetal cells) of the same molecule?
Its value is “more than 95%”.

What about the “cells with ratio of T668 fluorescent intensity to M7514 fluorescent intensity of more than 150%, share of total cells” value ([6]; cell population identified as a cardiomyocyte based on T668 signal) of the same molecule?
The value was 90%.

What about the “cells with ratio of T668 fluorescent intensity to M7514 fluorescent intensity of more than 150%, share of total cells” value ([6]; cell population identified as a non-cardiomyocyte based on T668 signal) of the same molecule?
The value was 13%.

What about the “high fluorescent cardiomyocyte population as the development stage progressed” value [7] of the same molecule?
The value was “increased in number”.

How did the “percentage of cardiomyocyte in cells with relatively higher fluorescent intensity (P5 area)” value [1, 8] turn out when CCN1C(=CC=Cc2n(CC)c3cc(Cl)c(Cl)cc3[n+]2CC)N(CC)c2cc(Cl)c(Cl)cc21 [T3168, 1H-Benzimidazolium, 5,6-dichloro-2-[3-(5,6-di-chloro-1,3-diethyl-1,3-dihydro-2H-benzimidazol-2-ylidene)-1-propenyl]-1,3-diethyl-, iodide, (E)-] was run?
The value was “more than 95%”.
